One molecule from patent US12312346B2, “Pyridopyrimidine compounds and methods of their use” (Tufts Medical Center, Inc., priority 2018, dated 2025) can be followed below.

The subject of assay [1] is mouse KO-MEFs (CDK6^−/− MEFs). Kind of assay: Cell cycle and cell number, CDK6-/- MEFs (KO-MEFs). Format: cell-based. Here is the method:
FIG. 6E is a series of charts showing representative cell cycle profiles of mouse KO-MEFs treated with a vehicle (V), PD (0.5 μM), or compound GD at 1, 5, 10, and 20 μM for 6 days.
FIG. 6F is a histogram summarizing the cell cycle distribution in FIG. 6E. Data shown are mean±S.D. (n=6); *P<0.05 vs its vehicle control, t-test.
FIG. 6G is a bar graph summarizing the cell numbers of KO-MEFs treated with PD (0.5 μM) or compound GD at different doses for 6 days. Data shown are mean±S.D. (n=6); *P<0.05 vs its vehicle control, t-test.
(§1) HCl salt of 6-acetyl-5-methyl-2-((4-(piperazin-1-ylmethyl)thiazol-2-yl)amino)pyrido[2,3-d]pyrimidin-7(8H)-one (Compound GD) prepared in Example 1 was examined for its inhibitory activity in cancer cell lines and WT and CDK6^−/− mouse embryonic fibroblasts (MEFs) and stromal vascular fractions (SVFs). MEFs and SVFs are enriched with mesenchymal stem cells (MSC) and pre-adipocytes which can differentiate into a variety of cell types, including adipocytes.

Assay [2] has as its system phosphorylated pRB at SER-780 in MDA-MB231 cells. Description: Immunoblot of phosphorylated pRB (SER-780) and PI staining, MDA-MB231. In kind it is cell-based. Here is the method: FIG. 5A is an image of a representative immunoblot showing the levels of phosphorylated pRB at SER-780 in MDA-MB231 and HPBALL cells following treatment of these cells with a vehicle, PD, or compound GD for 24 hours. Tubulin was used as loading control.
(§2) Table 2: Experimental Procedures: sensitivity to CDK6 kinase activity inhibition was tested by incubating different cell lines in the presence of CDK6 inhibitor GD007/PBS for either 24 hours for detecting the status of pRB-780 phosphorylation, or 5 days for determining the effect of GD007 on cell proliferation. (1) By immunoblotting (WB), we will detect phospho-pRB-S^780, one of the substrates of CDK6 kinase; (2) By using FACS analysis, we will stain treated cells with Propidium Iodide (PI), a commonly used fluorescent intercalator, to measure the subpopulation of cell cycle to reveal any impact of CDK6 inhibition on cell proliferation; (3) cell numbers will be counted using hemocytometer.
Background: In western blotting, separated proteins are transferred to a membrane and probed.

The subject of assay [3] is human leukemia cell line HPBALL (with Notch1 mutations). Description: Cell cycle (PI staining, S-G2-M cells) and cell number, HPBALL. Format: cell-based. The protocol: FIG. 1A is a series of charts showing representative cell cycle profiles of human leukemia cell line HPBALL (with Notch1 mutations) treated with a vehicle (V) (for ribociclib (LEE) or compound GD) or LEE or compound GD for 6 days at 1, 5, 10, and 20 μM.
FIG. 1B is a histogram summarizing the cell cycle distribution of the HPBALL cell line treated with compound GD, as described for FIG. 1A. Data shown are mean±S.D. (n=6); *P<0.05 vs its vehicle controls, t-test.
FIG. 1C is a histogram summarizing the cell cycle distribution of the HPBALL cell line treated with ribociclib (LEE), as described for FIG. 1A. Data shown are mean±S.D. (n=6); *P<0.05 vs its vehicle controls, t-test.
FIG. 1D is a chart the percentage of S-G2-M cells in FIGS. 1B and 1C. IC50 is the concentration of an inhibitor where the response (here is the inhibition of proliferation) is reduced by half.
FIG. 1E is a bar graph summarizing the cell numbers of HPBALL cells treated with either GD with different doses or LEE (20 μM) for 6 days. Data shown are mean±S.D. (n=6); *P<0.05 vs vehicles (0) control, t-test.
HCl salt of 6-acetyl-5-methyl-2-((4-(piperazin-1-ylmethyl)thiazol-2-yl)amino)pyrido[2,3-d]pyrimidin-7(8H)-one (Compound GD) prepared in Example 1 was examined for its inhibitory activity in cancer cell lines and WT and CDK6^−/− mouse embryonic fibroblasts (MEFs) and stromal vascular fractions (SVFs). […]
as §2

The subject of assay [4] is human leukemia cell line PEER (with WT Notch). Kind of assay: Cell cycle (PI staining, S-G2-M cells), PEER. In kind it is cell-based. The protocol: FIG. 3A Representative cell cycle profiles of human leukemia cell line PEER (with WT Notch) treated with a vehicle (V) (for palbociclib (PD) or compound GD), PD (0.5 μM), or compound GD at 0.05, 0.5, and 5 μM for 6 days.
FIG. 3B is a histogram summarizing the cell cycle distribution of the PEER cell line in FIG. 3A. Data shown are mean±S.D. (n=6); *P<0.05 vs its vehicle controls, t-test.
FIG. 3C is a chart showing the percentage of S-G2-M cells in FIG. 3B. […]
as §2

Assay [5] relates to Breast Cancer: MCF-7. Kind of assay: PI staining and pRB-780 immunoblot, MCF-7. Format: cell-based. The note with it: PI staining and WB: P-RB-780. Here is the method: as §2
The test system of assay [6] is CDK6^−/− SVFs (KO-SVFs). Description: Cell number, KO-SVFs. In kind it is cell-based, mouse. The note with it: 6 days; GD 0.1-10 μM. Here is the method: FIG. 7B is a bar graph showing the cell numbers of KO-SVFs treated with LEE (10 μM) or compound GD at 0.1, 0.5, 1.0, 5.0, and 10 μM for 6 days. Data shown are mean±S.D. (n=6); *P<0.05 vs its vehicle control, t-test.
as §1

In assay [7] the test system is mouse WT-MEFs. Description: Cell cycle and cell number, WT-MEFs. In kind it is cell-based. Here is the method: FIG. 6A is a series of charts showing representative cell cycle profiles of mouse WT-MEFs treated with a vehicle (V), PD (0.5 μM), LEE (10 μM), or compound GD at 1, 5, and 10 μM for 6 days.
FIG. 6B is a histogram summarizing the cell cycle distribution in FIG. 6A. Data shown are mean±S.D. (n=6); *P<0.05 vs vehicle control, t-test.
FIG. 6C is a chart showing the percentage of S-G2-M cells in FIG. 6B.
FIG. 6D is a bar graph summarizing the cell number of WT-MEFs treated with PD (0.5 μM), LEE (10 μM), or compound GD at varying doses for 6 days. Data shown are mean±S.D. (n=6); *P<0.05 vs vehicle control, t-test.
as §1

The subject of assay [8] is differentiated SVF cells (beige cell formation). Description: Oil Red O staining of differentiated SVF cells with BAT inducers. Format: cell-based. The note with it: GD 5 μM, FIG. 8B. Here is the method:
FIG. 8B is an image of Oil Red O staining of differentiated SVF cells treated with a vehicle or compound GD (5 μM) in the presence of brown adipose tissue (BAT) inducers. Scale bar: 100 μM
Beige cells are associated with protection against obesity and metabolic syndrome (WO 2017/161253). Accordingly, compound GD and related compounds of the invention can be used for treating obesity and related metabolic diseases.

In assay [9] the test system is Prostate Cancer: PC-3. Description: pRB-780 immunoblot, PC-3. In kind it is cell-based. The note with it: WB: P-RB-780. Here is the method: as §2

With `CC(=O)c1c(C)c2cnc(Nc3nc(CN4CCNCC4)cs3)nc2[nH]c1=O` [Compound GD, 6-acetyl-5-methyl-2-((4-(piperazin-1-ylmethyl)thiazol-2-yl)amino)pyrido[2,3-d]pyrimidin-7(8H)-one], the “proliferation of CDK6−/− MEFs” value in assay [1] (6 days, GD 1-20 μM, PD 0.5 μM) is reported as “little effect”. Also, the “preference for CDK6 over CDK4” value in assay [1] (concluded from WT versus CDK6−/− MEFs and SVFs) is given as “preferentially inhibits CDK6 over CDK4”. Further, the “Compound GD Efficacy” value is reported as “Efficacious” in assay [2] (MDA-MB231, PI staining and WB: P-RB-780); “Efficacious” in assay [3] (Leukemic cells: HPBALL, PI Staining, and cell number counting); “Efficacious” in assay [4] (Leukemic cells: PEER, PI Staining, and cell number counting); “No” in assay [5]; “No” in assay [9]. In addition, the pRB phosphorylation entry in assay [2] (breast cancer cell line MDA-MB231, 24 hours) is given as “inhibits pRB phosphorylation”. The IC50 in assay [3] (Homo sapiens, 144 h, HPBALL, 6 days, read-out: IC50 (inhibition of proliferation, percentage of S-G2-M cells)) was ~4 µM; in assay [4] (Homo sapiens, 144 h, PEER, 6 days, read-out: IC50 (percentage of S-G2-M cells, growth inhibition)), ~1300 nM; in [7] (144 h, mouse WT-MEF, 6 days, read-out: IC50 (proliferation, percentage of S-G2-M cells)), ~1200 nM. Further, the “proliferation of CDK6−/− SVFs” value in [6] was “little effect”. In addition, the “fraction of dead cells (effect on cell viability) relative to PD” value in assay [7] (WT-MEFs, FIG. 6B, GD 10 μM vs PD 0.5 μM) is given as “smaller”. Moreover, in assay [8], the beige cell formation result is reported as “induced beige cell formation”.
